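Exposure lasted 48 hours, with cells grown in 96-well plates and compounds tested at five concentrations. GI50: concentration for 50% inhibition of growth. TGI marks complete inhibition of growth.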
Key:
Test in all cases: NCI-60 cell line screen, 48 h
[1] = test system: SR leukemia
[2] = test system: UO-31 renal
[3] = test system: MDA-MB-231 breast
[4] = test system: EKVX NSCLC
[5] = test system: A549 NSCLC
[6] = test system: MALME-3M melanoma
[7] = test system: SK-MEL-2 melanoma
[8] = test system: 786-0 renal
[9] = test system: HCT-116 colon
[10] = test system: SF-268 CNS

SMILES | GI50 [1] | TGI [1] | GI50 [2] | TGI [2] | GI50 [3] | TGI [3] | GI50 [4] | TGI [4] | GI50 [5] | TGI [5] | GI50 [6] | TGI [6] | GI50 [7] | TGI [7] | GI50 [8] | TGI [8] | GI50 [9] | TGI [9] | GI50 [10] | TGI [10]
CCOC(=O)c1cc(NS(=O)(=O)c2ccc(C)cc2)cc(C(=O)OCC)c1 | 34.4 µM | > 100 µM | 39.1 µM | > 100 µM | 34.9 µM | > 100 µM | 31.7 µM | > 100 µM | 41.4 µM | > 100 µM | > 100 µM | > 100 µM | 28.3 µM | > 100 µM | 53.7 µM | > 100 µM | 39.5 µM | > 100 µM | 40.4 µM | > 100 µM
COc1ccc(Cn2cc3c(c2-c2cc(OC)c(OC)c(OC)c2)CCc2c(CO)noc2-3)cc1 | 0.194 µM | 23.2 µM | 0.639 µM | 22.4 µM | 0.629 µM | 19 µM | 0.644 µM | > 76.9 µM | 0.439 µM | > 100 µM | 2.46 µM | 29.3 µM | 0.455 µM | 19.5 µM | 0.493 µM | 24.7 µM | 0.311 µM | 11.4 µM | 1.58 µM | 26.5 µM
CC/C=C\C[C@H](O)C/C=C1/C(=O)C=C[C@@H]1C/C=C\CCCCO | 1.97 µM | 16.2 µM | 1.63 µM | 3.23 µM | 3.92 µM | 14.9 µM | 4.22 µM | 18 µM | 3.35 µM | 11.5 µM | 2.44 µM | 7.48 µM | 5.96 µM | 22.6 µM | 1.91 µM | 3.77 µM | 1.7 µM | 3.33 µM | 4.53 µM | 23.9 µM
Cc1ccccc1C(C(=O)NC1CCCCC1)N(C(=O)CNc1ncccc1F)c1cccc(F)c1 (stereo not given) | > 100 µM | > 100 µM | > 100 µM | > 100 µM | 25.1 µM | > 100 µM | > 100 µM | > 100 µM | > 100 µM | > 100 µM | > 100 µM | > 100 µM | 28.9 µM | > 90.3 µM | 32.8 µM | > 100 µM | 96.9 µM | > 100 µM | 48.7 µM | > 100 µM
COc1cc(CCC(=O)NC[C@@H](O)c2ccccc2)ccc1O | 61.6 µM | > 100 µM | > 100 µM | > 100 µM | > 100 µM | > 100 µM | > 100 µM | > 100 µM | > 100 µM | > 100 µM | > 100 µM | > 100 µM | > 100 µM | > 100 µM | > 100 µM | > 100 µM | > 100 µM | > 100 µM | > 100 µM | > 100 µM

From PubChem BioAssay (NCI)
